Earlier results in PubChem BioAssay AID1259409 (Chemical Carcinogenesis Research Information System (CCRIS), 2018).

Tested on: rodent chemically induced tumor inhibition, incidence and multiplicity
Assay: CCRIS tumor inhibitor studies

CC1=C(/C=C/C(C)=C/C=C/C(C)=C/C=C/C=C(C)/C=C/C=C(C)/C=C/C2=C(C)CCCC2(C)C)C(C)(C)CCC1
tumour outcome (control, treated, inhibition, significance) (Carcinogen: DIESEL EXHAUST PARTICLES, Dose [Inhibitor]: 0, 0.02% IN HIGH FAT DIET FOR DURATION OF STUDY (STUDY DURATION: 12 MO), Route [Inhibitor]: ORAL, Species: MOUSE, Strain/Sex: ICR/MALE, Target Tissue: Type of Lesion: LUNG: TUMOR, Dose [Carcinogen]: 0.1 MG 1/WK FOR 10 WK, Promoter: NONE USED): 13/30 (43%), 5/30 (17%), 60%, not calculated | tumour outcome (control, treated, inhibition, significance) (Carcinogen: DIESEL EXHAUST PARTICLES, Dose [Inhibitor]: 0, 0.02% IN HIGH FAT DIET FOR DURATION OF STUDY (STUDY DURATION: 12 MO), Route [Inhibitor]: ORAL, Species: MOUSE, Strain/Sex: ICR/MALE, Target Tissue: Type of Lesion: LUNG: TUMOR, Dose [Carcinogen]: 0.2 MG 1/WK FOR 10 WK, Promoter: NONE USED): 7/29 (24%), 11/29 (38%), -58%, not calculated | tumour outcome (control, treated, inhibition, significance) (Carcinogen: DIESEL EXHAUST PARTICLES, Dose [Inhibitor]: 0, 0.02% IN HIGH FAT DIET FOR DURATION OF STUDY (STUDY DURATION: 12 MO), Route [Inhibitor]: ORAL, Species: MOUSE, Strain/Sex: ICR/MALE, Target Tissue: Type of Lesion: LYMPHATIC SYSTEM: LYMPHOMA, Dose [Carcinogen]: 0.1 MG 1/WK FOR 10 WK, Promoter: NONE USED): 3/30 (10%), 9/30 (30%), -200%, not calculated | tumour outcome (control, treated, inhibition, significance) (Carcinogen: DIESEL EXHAUST PARTICLES, Dose [Inhibitor]: 0, 0.02% IN HIGH FAT DIET FOR DURATION OF STUDY (STUDY DURATION: 12 MO), Route [Inhibitor]: ORAL, Species: MOUSE, Strain/Sex: ICR/MALE, Target Tissue: Type of Lesion: LYMPHATIC SYSTEM: LYMPHOMA, Dose [Carcinogen]: 0.2 MG 1/WK FOR 10 WK, Promoter: NONE USED): 8/29 (28%), 4/29 (14%), 50%, not calculated | tumour outcome (control, treated, inhibition, significance) (Carcinogen: DIETHYLNITROSAMINE, 55-18-5, Dose [Inhibitor]: 0, 0.005% IN DIET FOR DURATION OF STUDY (STUDY DURATION: 13 WKS), Route [Inhibitor]: ORAL, Species: HAMSTER, Strain/Sex: SYRIAN/MALE, Target Tissue: Type of Lesion: LARYNX/TRACHEA: PAPILLOMA, Dose [Carcinogen]: 100 MG/KG BW ONCE, Promoter: CIGARETTE SMOKE): 13/28 (46%), 10/28 (36%), 22%, not significant | tumour outcome (control, treated, inhibition, significance) (Carcinogen: DIETHYLNITROSAMINE, 55-18-5, Dose [Inhibitor]: 0, 0.05% IN DIET FOR DURATION OF STUDY (STUDY DURATION: 13 WKS), Route [Inhibitor]: ORAL, Species: HAMSTER, Strain/Sex: SYRIAN/MALE, Target Tissue: Type of Lesion: LARYNX/TRACHEA: PAPILLOMA, Dose [Carcinogen]: 100 MG/KG BW ONCE, Promoter: CIGARETTE SMOKE): 13/28 (46%), 11/29 (38%), 17%, not significant | tumour outcome (control, treated, inhibition, significance) (Carcinogen: DIETHYLNITROSAMINE, 55-18-5, Dose [Inhibitor]: 0, 0.5% IN DIET FOR 10 D THEN REDUCED TO 0.25% FOR DURATION OF STUDY (STUDY DURATION: 13 WKS), Route [Inhibitor]: ORAL, Species: HAMSTER, Strain/Sex: SYRIAN/MALE, Target Tissue: Type of Lesion: LARYNX/TRACHEA: PAPILLOMA, Dose [Carcinogen]: 100 MG/KG BW ONCE, Promoter: CIGARETTE SMOKE): 13/28 (46%), 4/26 (15%), 67%, p< 0.05 | tumour outcome (control, treated, inhibition, significance) (Carcinogen: DIETHYLNITROSAMINE, 55-18-5, Dose [Inhibitor]: 0, 1.5 MG 2/WK FOR 20 WK (STUDY DURATION: 25 WK), Route [Inhibitor]: SUBCUTANEOUS, Species: HAMSTER, Strain/Sex: SYRIAN/MALE, Target Tissue: Type of Lesion: LUNG: CARCINOMA, Dose [Carcinogen]: 17.8 MG/KG BW 2/WK FOR 20 WK, Promoter: NONE USED): 50%, 26%, 48%, not significant | tumour outcome (control, treated, inhibition, significance) (Carcinogen: DIETHYLNITROSAMINE, 55-18-5, Dose [Inhibitor]: 0, 1.5 MG 2/WK FOR 20 WK (STUDY DURATION: 25 WK), Route [Inhibitor]: SUBCUTANEOUS, Species: HAMSTER, Strain/Sex: SYRIAN/MALE, Target Tissue: Type of Lesion: TRACHEA: PAPILLOMA, Dose [Carcinogen]: 17.8 MG/KG BW 2/WK FOR 20 WK, Promoter: NONE USED): 95%, 100%, -5%, not significant | tumour outcome (control, treated, inhibition, significance) (Carcinogen: DIETHYLNITROSAMINE, 55-18-5, Dose [Inhibitor]: 0, 3 MG 2/WK FOR 20 WK (STUDY DURATION: 25 WK), Route [Inhibitor]: SUBCUTANEOUS, Species: HAMSTER, Strain/Sex: SYRIAN/MALE, Target Tissue: Type of Lesion: LUNG: CARCINOMA, Dose [Carcinogen]: 17.8 MG/KG BW 2/WK FOR 20 WK, Promoter: NONE USED): 60%, 30%, 50%, not significant | tumour outcome (control, treated, inhibition, significance) (Carcinogen: DIETHYLNITROSAMINE, 55-18-5, Dose [Inhibitor]: 0, 3 MG 2/WK FOR 20 WK (STUDY DURATION: 25 WK), Route [Inhibitor]: SUBCUTANEOUS, Species: HAMSTER, Strain/Sex: SYRIAN/MALE, Target Tissue: Type of Lesion: TRACHEA: PAPILLOMA, Dose [Carcinogen]: 17.8 MG/KG BW 2/WK FOR 20 WK, Promoter: NONE USED): 100%, 100%, 0%, not significant | tumour outcome (control, treated, inhibition, significance) (Carcinogen: DIMETHYLBENZ[A]ANTHRACENE, 57-97-6, Dose [Inhibitor]: 0.25 ML OF 0.015% AGENT IN ACETONE ADMINISTERED WITH PROMOTER 5/WK FOR 16 WK BEGINNING 3 WK POST CARCINOGEN DOSE (STUDY, Route [Inhibitor]: DERMAL, Species: MOUSE, Strain/Sex: ICR/FEMALE, Target Tissue: Type of Lesion: SKIN: PAPILLOMA, Dose [Carcinogen]: 0.125 MG IN 0.25 ML ACETONE ONCE, Promoter: PHENOL, 108-95-2): 7/25 (28%), 6/28 (21%), 25%, not calculated | tumour outcome (control, treated, inhibition, significance) (Carcinogen: DIMETHYLBENZ[A]ANTHRACENE, 57-97-6, Dose [Inhibitor]: 100 MG/KG OF DIET IMMEDIATELY FOLLOWING CARCINOGEN DOSE FOR 22 WK (STUDY DURATION: 22 WK), Route [Inhibitor]: ORAL, Species: RAT, Strain/Sex: SPRAGUE-DAWLEY/MALE, Target Tissue: Type of Lesion: SALIVARY GLAND: TUMOR, Dose [Carcinogen]: 1 MG IN OLIVE OIL INJECTED INTO ONE SALIVARY GLAND ONCE, Promoter: NONE USED): 3/9 (33%), 1/11 (9%), 73%, not significant | tumour outcome (control, treated, inhibition, significance) (Carcinogen: METHYL(ACETOXYMETHYL)NITROSAMINE, 56856-83-8, Dose [Inhibitor]: 0, 5.8 NMOL IN DRINKING WATER BEGINNING 2 WK PRIOR TO CARCINOGEN AND CONTINUED FOR STUDY DURATION, (STUDY DURATION: 13 M, Dose [Inhibitor]: 0, 5.8 NMOL IN DRINKING WATER BEGINNING 2 WK PRIOR TO CARCINOGEN AND CONTINUED FOR STUDY DURATION, (STUDY DURATION: 13 M, Route [Inhibitor]: ORAL, Species: HAMSTER, Strain/Sex: SYRIAN/FEMALE, Target Tissue: Type of Lesion: ORAL CAVITY: TUMOR, Dose [Carcinogen]: 2 MG/KG BW IN DISTILLED WATER TO RIGHT CHEEK POUCH 2/MO FOR 6 MO (TOTAL DOSE 24 MG/KG), Promoter: NONE USED): 14/15 (93%), 4/15 (27%), 71%, p<0.001 | tumour outcome (control, treated, inhibition, significance) (Carcinogen: N-BUTYL-N-(4-HYDROXYBUTYL)NITROSAMINE, 3817-11-6, Dose [Inhibitor]: 0, 0.0025% IN DRINKING WATER FOR 12 WK BEGINNING POST CARCINOGEN TREATMENT (STUDY DURATION: 20 WK), Route [Inhibitor]: ORAL, Species: RAT, Strain/Sex: F344/MALE, Target Tissue: Type of Lesion: URINARY BLADDER: TRANSITIONAL CELL CARCINOMA, Dose [Carcinogen]: 0.05% IN DRINKING WATER FOR 8 WK, Promoter: NONE USED): 10/12 (83%), 12/12 (100%), -20%, not significant | tumour outcome (control, treated, inhibition, significance) (Carcinogen: N-BUTYL-N-(4-HYDROXYBUTYL)NITROSAMINE, 3817-11-6, Dose [Inhibitor]: 0, 0.1% IN DIET BEGINNING 5 WK PRIOR TO CARCINOGEN TREATMENT AND CONTINUING FOR DURATION OF STUDY (STUDY DURATION: 7 MO), Route [Inhibitor]: ORAL, Species: MOUSE, Strain/Sex: B6D2F1/MALE, Target Tissue: Type of Lesion: BLADDER: CARCINOMA IN SITU, Dose [Carcinogen]: 5 MG IN SALINE SOLUTION 2/WK FOR 9 WK, Promoter: NONE USED): 7/24 (29%), 3/24 (13%), 55%, not calculated | tumour outcome (control, treated, inhibition, significance) (Carcinogen: N-BUTYL-N-(4-HYDROXYBUTYL)NITROSAMINE, 3817-11-6, Dose [Inhibitor]: 0, 0.1% IN DIET BEGINNING 5 WK PRIOR TO CARCINOGEN TREATMENT AND CONTINUING FOR DURATION OF STUDY (STUDY DURATION: 7 MO), Route [Inhibitor]: ORAL, Species: MOUSE, Strain/Sex: B6D2F1/MALE, Target Tissue: Type of Lesion: BLADDER: TRANSITIONAL CELL CARCINOMA, Dose [Carcinogen]: 5 MG IN SALINE SOLUTION 2/WK FOR 9 WK, Promoter: NONE USED): 8/24 (33%), 5/24 (21%), 36%, not calculated | tumour outcome (control, treated, inhibition, significance) (Carcinogen: N-BUTYL-N-(4-HYDROXYBUTYL)NITROSAMINE, 3817-11-6, Dose [Inhibitor]: 0, 0.1% IN DIET BEGINNING 5 WK PRIOR TO CARCINOGEN TREATMENT AND CONTINUING FOR DURATION OF STUDY (STUDY DURATION: 7 MO), Route [Inhibitor]: ORAL, Species: MOUSE, Strain/Sex: B6D2F1/MALE, Target Tissue: Type of Lesion: BLADDER: TUMOR, Dose [Carcinogen]: 5 MG IN SALINE SOLUTION 2/WK FOR 9 WK, Promoter: NONE USED): 15/24 (63%), 8/24 (33%), 48%, p<0.05
